# Assay results taken from EP0421697A2, “Contrast agents and methods for enhancing magnetic resonance imaging” (SMITHKLINE BEECHAM CORPORATION, priority 1989, dated 1991).
# How the values were obtained:
# [1] = design: species or system Male Sprague-Dawley rats; conditions: rat, in vivo
# Experimental: Male Sprague-Dawley rats (200 to 350 g; Charles River Breeding Laboratories, Raleigh, NC) were anesthetized with Inactin (100 mg/kg, i.p.; Byk Gulden). A jugular vein and femoral artery were isolated and cannulated with PE-50 polyethylene tubing (Clay-Adams). The femoral artery cannula was connected to a pressure transducer (Gould-Statham Model P23id) for blood pressure and heart rate recording. The jugular vein cannula was connected to an infusion pump (Sage Model 352) and an infusion of inulin (Inutest, Laevasan-Gesellschaft; 10% in 0.9% NaCl) and ytterbium-diethyltriaminepentaacetic acid (Yb-DTPA in water 6.0 mg/ml) was initiated at a rate of […]. […]
# Urine volumes were measured gravimetrically (specific gravity = 1) and 50 µl was removed for determination of inulin and Yb-DTPA concentrations. Inulin concentrations in plasma and urine samples were determined according to the method of Heyrosky (1956). Yb concentrations were determined by inductively-coupled plasma emission spectrometry using a Model JY-38P (Instruments SA, Inc.) and a grating of 3600 lines/mm. The 369.42 nm Yb line and 5 one-second measurements were taken at the end of each sample aspiration to provide an average reading (Bumbier, et al., 1984). […] Plasma concentrations of inulin and Yb-DTPA for C₂ were estimated from values measured for C₁ and C₃. […]
# [2] = tested on: normal rat kidney; test: MR imaging of rat kidney after i.v. bolus of Yb-DTPA (signal intensity ratio Ipapilla/Imuscle over time); format: in vivo, rats; conditions: 1 ml of a 50 mM solution in saline, GE SIGNA 1.5T, images every 20 seconds, Figure 1
# From the text: After administration of the chelate solution to the subject, imaging with any conventional MR imaging system may be begun. Preferably, a fast imaging sequence, such as gradient echo imaging is used. […] This graph plots the ratio of signal intensity of region of interest to signal intensity of surrounding muscle tissue over time, as shown, for example in Figure 1, discussed below.
# As in the above comparative example, rats were provided with an infusion line and strapped in an MRI magnet GE SIGNA 1.5T. 1 ml of a 50 mM solution of Yb-DTPA in saline was injected (intravenously) as a bolus. Images were collected every 20 seconds and the signal intensity from the rat papilla (Ipapilla) and signal intensity for the surrounding rat muscle (Imuscle) were measured. […] The area under the curve is an index of GFR.
substance,measurement,setting,value
ytterbium-diethylenetriamine pentaacetic acid [Yb-DTPA],"Mean (± SEM) renal clearance (Cin, CYb)",[1],1101 ± 47
same,share of renal elimination via glomerular filtration,[1],~85%
same,ratio of signal intensities Ipapilla/Imuscle against time,[2],sharp decrease in the ratio and the slow rise
